According to ChEMBL document CHEMBL3396972, “Synthesis and biological evaluation of DAPY-DPEs hybrids as non-nucleoside inhibitors of HIV-1 reverse transcriptase” (Bioorg Med Chem, 2015):

Experiments:
[1] = tested on: Human immunodeficiency virus 1; test: Antiviral activity against HIV-1 RES056 harboring reverse transcriptase K103N/Y181C double mutant infected in human MT4 cells assessed as reduction of virus-induced cytopathic effect after 5 days by MTT assay; assay type: functional, organism-based; conditions: Human immunodeficiency virus 1, RES056, MT4, 120 h
[2] = tested on: Human immunodeficiency virus 2; test: Antiviral activity against wild type HIV-2 ROD infected in human MT4 cells assessed as reduction of virus-induced cytopathic effect after 5 days by MTT assay; assay type: functional, organism-based; conditions: Human immunodeficiency virus 2, ISOLATE ROD, MT4, 120 h
[3] = Cytotoxicity against human MT4 cells after 5 days MTT assay; assay type: cell-based
[4] = Selectivity index, ratio of CC50 for human MT4 cells to EC50 for wild type HIV-1 3B infected in human MT4 cells; assay type: toxicity, cell-based; conditions: read-out: Ratio CC50/EC50
[5] = target: Human immunodeficiency virus type 1 reverse transcriptase (Human immunodeficiency virus 1, UniProt Q72547); test: Inhibition of wild type HIV1 p66/p51 reverse transcriptase by spectrofluorometry
[6] = tested on: Human immunodeficiency virus 1; test: Antiviral activity against wild type HIV-1 3B infected in human MT4 cells assessed as reduction of virus-induced cytopathic effect after 5 days by MTT assay; assay type: functional, organism-based; conditions: Human immunodeficiency virus 1, 3B, MT4, 120 h

SMILES | EC50 [1] [µM] | EC50 [2] [µM] | CC50 at 120 h [3] [µM] | selectivity ratio [4] | IC50 [5] [µM] | EC50 [6] [nM]
Cc1cn([C@H]2C[C@H](N=[N+]=[N-])[C@@H](CO)O2)c(=O)[nH]c1=O [ZIDOVUDINE] | 0.01 | 0.0066 | > 93.5 | – | – | –
COc1ccc(NC(=O)COc2ccnc(Nc3ccc(C#N)cc3)n2)cc1 | > 333 | > 333 | > 333 | > 7 | 24.6 | 49100
Cc1cnc(Nc2ccc(C#N)cc2)nc1OCC(=O)Nc1ccc(C#N)cc1F | > 311 | > 311 | > 311 | > 102 | 12 | 3030
Cc1cc(OCC(=O)Nc2cccc(Cl)c2)nc(Nc2ccc(C#N)cc2)n1 | > 32.1 | > 32.1 | 32.1 | 197 | 0.54 | 170
Cc1cc(OCC(=O)Nc2ccc(C#N)cc2F)nc(Nc2ccc(C#N)cc2)n1 | – | > 311 | > 311 | – | – | > 311000
N#Cc1ccc(Nc2nccc(OCC(=O)Nc3ccc([N+](=O)[O-])cc3)n2)cc1 | > 320 | > 320 | > 320 | – | – | > 320000
Cc1cc(C#N)cc(C)c1Oc1nc(Nc2ccc(C#N)cc2)nc(N)c1Br [ETRAVIRINE] | 0.013 | > 13.3 | 13.3 | 7680 | – | 1.7
Cc1cnc(Nc2ccc(C#N)cc2)nc1OCC(=O)Nc1ccc([N+](=O)[O-])cc1 | > 66.3 | > 66.3 | 66.3 | < 1 | – | > 66300
Cc1cnc(Nc2ccc(C#N)cc2)nc1OCC(=O)Nc1ccc(C#N)cc1 | > 48.4 | > 48.4 | ≥ 48.4 | ≥ 20 | 17.6 | 2420
Cc1cc(OCC(=O)Nc2ccc(Br)cc2)nc(Nc2ccc(C#N)cc2)n1 | – | 0.93 | 0.93 | < 1 | – | > 930
N#Cc1ccc(Nc2nccc(OCC(=O)Nc3ccc(C#N)cc3F)n2)cc1 | > 322 | > 322 | > 322 | – | – | > 322000
Cc1cnc(Nc2ccc(C#N)cc2)nc1OCC(=O)Nc1ccc(Cl)cc1 | > 317 | > 317 | > 317 | – | – | > 317000
Nc1ccn([C@@H]2CS[C@H](CO)O2)c(=O)n1 [LAMIVUDINE] | – | – | > 87.2 | > 39 | – | –
O=c1[nH]cnc2c1ncn2[C@H]1CC[C@@H](CO)O1 [DIDANOSINE] | – | – | > 212 | > 9 | – | –
Cc1cnc(Nc2ccc(C#N)cc2)nc1OCC(=O)Nc1ccccc1Cl | > 197 | > 197 | 197 | 11300 | 0.046 | 17
N#Cc1ccc(Nc2nccc(OCC(=O)Nc3cccc(Cl)c3)n2)cc1 | > 329 | > 329 | > 329 | > 9340 | 0.12 | 35
N#Cc1ccc(NC(=O)COc2ccnc(Nc3ccc(C#N)cc3)n2)cc1 | > 338 | > 338 | > 338 | – | 23.9 | ≥ 35100
Cc1cc(OCC(=O)Nc2ccc(F)cc2)nc(Nc2ccc(C#N)cc2)n1 | > 331 | > 331 | > 331 | – | – | > 331000
Cc1cnc(Nc2ccc(C#N)cc2)nc1OCC(=O)Nc1ccccc1F | > 331 | > 331 | > 331 | > 25200 | 0.083 | 13
Cc1cc(OCC(=O)Nc2ccc(Cl)cc2)nc(Nc2ccc(C#N)cc2)n1 | 2.63 | 2.63 | 2.63 | < 1 | – | > 2630
N#Cc1ccc(Nc2nccc(OCC(=O)Nc3ccc(Cl)cc3)n2)cc1 | > 162 | 162 | 162 | 8 | 26.9 | 19200
CC(C)Nc1cccnc1N1CCN(C(=O)c2cc3cc(NS(C)(=O)=O)ccc3[nH]2)CC1 [DELAVIRDINE] | > 43.8 | – | > 43.8 | > 67 | – | 650
Cc1cc(OCC(=O)Nc2ccc([N+](=O)[O-])cc2)nc(Nc2ccc(C#N)cc2)n1 | – | > 309 | > 309 | – | – | > 309000
N#Cc1ccc(Nc2nccc(OCC(=O)Nc3ccc(F)cc3)n2)cc1 | > 344 | > 344 | > 344 | – | – | > 344000
Cc1cnc(Nc2ccc(C#N)cc2)nc1OCC(=O)Nc1cccc(Cl)c1 | > 144 | > 144 | 144 | 2890 | 0.16 | 50
O=C1Nc2ccc(Cl)cc2[C@@](C#CC2CC2)(C(F)(F)F)O1 [EFAVIRENZ] | – | – | > 6.34 | – | – | 6.2
Cc1ccnc2c1NC(=O)c1cccnc1N2C1CC1 [NEVIRAPINE] | ≥ 7.59 | – | > 15 | – | – | –
Cc1cnc(Nc2ccc(C#N)cc2)nc1OCC(=O)Nc1ccc(F)cc1 | > 331 | > 331 | > 331 | – | 18.9 | ≥ 34400
Cc1cc(OCC(=O)Nc2ccc(C#N)cc2)nc(Nc2ccc(C#N)cc2)n1 | – | > 325 | > 325 | – | – | > 325000
Cc1cnc(Nc2ccc(C#N)cc2)nc1OCC(=O)Nc1ccc(Br)cc1 | > 34.7 | > 34.7 | 34.7 | < 1 | – | > 34700
